This is an account of results in a melting point compilation (Tetko et al.; mined from patent text by program, amines drawn as free bases though some values may be those of a salt).

Molecule `O=C1c2cc(O)ccc2OC12CC2` gave a melting point of 180 to 185 °C.

Molecule `Cc1nc2c(cc1C(=O)O)CCCC2` had a melting point of 196 to 197 °C.

As for `Cc1c(C)c2c(c(C)c1NC(=O)CC(C)(C)C)C(c1ccc(C(C)C)cc1)CO2` (centres undefined), the melting point was 171 to 173 °C.

As for `CS(=O)(=O)NC(=O)C1(CCCCCCCCCCCCC2(C(=O)NCCO)CC2)CC1`, the melting point lay within 104 to 105 °C.

In the case of `NS(=O)(=O)c1ccc(C2=C(c3ccc(F)cc3)CCC2)cc1`, the melting point was 173 to 174 °C.

`O=C(Cn1nnc2cccnc21)Nc1ccc(-n2nc(C(F)(F)F)cc2C2CC2)cc1` came in with a melting point of 206 to 209 °C.

For `O=C(O)c1ccc(C#Cc2cc(C#Cc3ccc(C(=O)O)cc3)cc(C#Cc3ccc(C(=O)O)cc3)c2)cc1`, the melting point stood at 218 °C.

With `CCc1c(-c2ccc(OCc3ccccc3)cc2)c2c(C(=O)O)c(C(=O)O)c3c(OC)ccc1n32`, the melting point is 198 to 200 °C.

Consider `CNC(=O)Nc1ccc(OC)c(-c2ccc(C[C@H](NC(=O)c3c(Cl)cccc3Cl)C(=O)O)cc2)c1OC`, for which the melting point fell in the range of 236 to 237 °C.

In turn, `O=C1CC2(CCCC2)C(O)C(=O)N1CCCCN1CCN(c2nsc3ccccc23)CC1` (centres undefined) came in with a melting point of 151 °C.

`CCCCCCCCCCCC1=NCCO1` showed a melting point of 71 to 74 °C.

`CCCn1c(=O)c2c(N3CCN(C)CC3)cc(Cl)cc2n(Cc2ccccc2)c1=O` returned a melting point of 120 to 121 °C.

The molecule `O=C(O)c1ccc(COc2ccc3cc(-c4csc(-c5ccccc5)n4)ccc3c2Br)cc1` gave a melting point of 268 to 270 °C.

`CCOC(=O)COc1ccc2cc(-c3oc4ccccc4c3CCC3CCCC3)ccc2c1Br` came in with a melting point of 115 to 120 °C.

`CC1(C)CC(=O)c2c(C3CCC3)sc(-c3nccs3)c2C1` had a melting point of 126 to 128 °C.

On to `COCCOC(=O)C1=C(C)NC(C)C(C(=O)OC(C)C)(c2ccc(F)cc2F)C1` (centres undefined), for which the melting point was 123 to 126 °C.

In turn, `CCn1c(=Nc2ccccc2)sc2ncccc2c1=O` displayed a melting point of 117 to 118 °C.

`CCOC(=O)c1ccc(NC(=O)N2CCc3cc(SC)c(C(F)(F)F)cc32)cc1`: the melting point was more than 200 °C.

As to `CC(C)CC(CS)C(=O)NCC(=O)NC(CCCNC(=N)N)C(=O)O` (centres undefined), the melting point fell in the range of 132 to 146 °C.

`O=C(Cl)CC(c1ccccc1)c1ccccc1` yielded a melting point of 41 to 43 °C.

`Cc1ccc(/C=C/c2sccc2S(=O)(=O)Nc2onc(C)c2Br)cc1` registered a melting point of 101 to 105 °C.

As for `O=C(CN1CCC(Cc2ccc(F)cc2)CC1)Nc1ccc2c(c1)NC(=O)CO2`, the melting point lay in the range of 185 to 187 °C.

For the molecule `CCCCC(O)Cc1c(O)c2cccnc2n(-c2ccccc2)c1=O` (centres undefined), the melting point was in the range of 184 to 186 °C.

On to `Cc1cc(C)c(NC(=O)NC2CC2c2ccc(-c3ncn(-c4ccc(OC(F)(F)F)cc4)n3)cc2)c(C)c1` (centres undefined), for which the melting point lay within 254 to 256 °C.

`O=[N+]([O-])c1cc([C@@H]2CO2)ccc1OCc1ccccc1`: the melting point amounted to 66 °C.

The molecule `Cc1c(NC(=O)c2ccc(OC[C@@H]3CCCO3)cc2)ccc2cc(CNCCOC(C)C)cnc12` yielded a melting point of 111 to 113 °C.

In the case of `CN(C)S(=O)(=O)c1ccc2c(c1)CC(Br)C2=O` (centres undefined), the melting point worked out at 115 °C.

Molecule `N#CN=C(NCCC[C@@H](NC(=O)C(c1ccccc1)c1ccccc1)C(=O)NCc1ccc(O)cc1)Oc1ccccc1` came in with a melting point of 110 to 112 °C.

For the molecule `CC(C)c1nc(N)nc(-c2ccc(F)c3ccccc23)c1Br`, the melting point was in the range of 176 to 180 °C.

Regarding `CC(C)(C)C(=O)C(N)=O`, the melting point lay in the range of 69 to 70 °C.

The molecule `COc1ccc2ncccc2c1C1OC(=O)NC1=O` (centres undefined) returned a melting point of 144 to 146 °C.

With `Cc1cccc(NC(=O)NC2N=C(c3ccccc3F)c3ccccc3N(Cc3nc4ccccc4[nH]3)C2=O)c1` (racemic), the melting point lay within 165 to 167 °C.

In turn, `CC(C)c1ccc(C(=O)c2c(N)sc3c2CCN(Cc2ccccc2)C3)cc1` displayed a melting point of 157 to 158 °C.

`O=C(O)COc1ccc(SCc2ccc(-c3ccc(C(F)(F)F)cc3)cc2)c2c1CCCO2`: the melting point lay in the range of 122 to 124 °C.

As usually defined, the melting point is the temperature of the solid-liquid transition.
